Tests used:
[1] = UV absorption in methanol; format: physicochemical; settings: methanol solution, 0.1 mM, 25° C.
Experimental: (§1) The absorbance bands of these spectra still remain at 820 nm after chemical modification and hybridization with polymers. The colloidal stability and aggregation were tested by using UV absorbance. Dye-Pol 1 and Dye-Pol 2 were mixed with phosphate buffered saline (PBS) buffer. The absorbance bands remain the same after 3 days (FIG. 7). Similar phenomenon happened to MNP 1 and MNP 2 (FIG. 8). […] FIG. 9 and FIG. 10 show the emission spectra in the near-infrared region (800-1500 nm), excited at 785 nm. The emission spectrum of IR820dye-NH2 is 1002 nm, slightly blue-shifted from 1076 nm (IR-820). Dye-Pol 1 and Dye-Pol 2 show the emission highest peak at 956 nm while the emission of MNP 1 and MNP 2 are 864 and 866 nm, respectively. Dye-Pol 1 and Dye-Pol 2 absorb at 820 nm and emit at 956 nm. They display a large Stokes shift (136 nm).

[2] = NIR photoluminescence emission spectra excited with a 785 nm laser diode; format: physicochemical; settings: near-infrared region (800-1500 nm), excited at 785 nm
Experimental: as §1

An absorbance band [1] of 820 nm and an emission highest peak [2] of 1076 nm were found for `CC1(C)C(=CC=C2CCCC(C=CC3=[N+](CCCCS(=O)(=O)[O-])c4ccc5ccccc5c4C3(C)C)=C2Cl)N(CCCCS(=O)(=O)[O-])c2ccc3ccccc3c21.[Na+]` [IR-820] in this work.

From patent publication US20130153815A1, “POLYMER COMPRISING A DYE, NANOPARTICLE COMPRISING THE POLYMER, AND METHODS OF PREPARING THE SAME” (Agency for Science, Technology and Research, priority 2011, published 2013)
